{"source": "patent US12171864B2", "about": "“Biological self-assembled nanocrystal injection having a lymphatic targeting function and preparation method” (SHENZHEN CHINA RESOURCES JIUCHUANG MEDICAL AND …, priority 2017, dated 2024)", "key": {"[1]": {"test_system": "lymph nodes", "test": "Effect of the osmotic pressure on the drug targeting ability (lymph node staining)", "format": "in vivo, Kunming mice", "from_the_text": "Mitoxantrone hydrochloride was used as a model drug. The osmotic pressure of the injection was adjusted to 112, 196, 285, 307, 1503, 2317, and 3011 mmol/Kg, respectively. The mode of administration of interstitial injection was selected for subcutaneous injection in the paws of Kunming mice. At the pre-set time points, the mice were sacrificed by cervical dislocation, and the first, second and third classes of lymph nodes were removed for observation of staining."}, "[2]": {"test_system": "lymph nodes", "test": "Effect of pH on the drug targeting ability (lymph node staining)", "format": "in vivo, Kunming mice", "from_the_text": "Mitoxantrone hydrochloride was used as a model drug. The pH of the injection was adjusted to 1.5, 2.0, 2.5, 3.5, 4.5, 5.5, and 6.0, respectively. The mode of administration of interstitial injection was selected for subcutaneous injection in the paws of Kunming mice. At the pre-set time points, the mice were sacrificed by cervical dislocation, and the first, second and third classes of lymph nodes of the mice were removed for observation of staining."}, "[3]": {"test_system": "injection site", "test": "Effect of the osmotic pressure on the irritation of the injection site (H&E staining)", "format": "in vivo, Kunming mice", "from_the_text": "Mitoxantrone hydrochloride was used as a model drug. The osmotic pressure of the injection was adjusted to 112, 196, 285, 307, 1503, 2317, and 3011 mmol/Kg, respectively. The mode of administration of interstitial injection was selected for subcutaneous injection in the paws of Kunming mice. At the pre-set time points, the mice were sacrificed by cervical dislocation, and the administration sites of the mice were taken for H&E staining to evaluate local irritation."}, "[4]": {"test": "Effect of pH on the drug stability (drug content after 0.22 μm filtration)", "format": "physicochemical", "conditions": "filtered 0.22 μm", "protocol": "Mitoxantrone hydrochloride was used as a model drug. The pH of the injection was adjusted to 1.5, 2.0, 2.5, 3.5, 4.5, 5.5, 6.0, 6.5, and 7.0, respectively. At one hour after adjusting the pH value, the content of the drug was determined after filtration through a 0.22 μm membrane. When the pH was between 1.5 and 6.0, the drug content was from 98.45±0.61% to 101.72±0.20%."}}, "note": "Where a name gives a salt, the structure may show the parent alone."}
{"smiles": "O=C1c2c(O)ccc(O)c2C(=O)c2c(NCCNCCO)ccc(NCCNCCO)c21", "note": "[Mitoxantrone hydrochloride]", "values": [{"measurement": "color of third class of lymph nodes", "setting": "[1]; osmotic pressure 285 or 2317 mmol/Kg", "value": "light blue"}, {"measurement": "staining of lymph nodes", "setting": "[1]; osmotic pressure between 285 and 2317 mmol/Kg", "value": "all the three classes of lymph nodes could be stained"}, {"measurement": "staining of lymph nodes", "setting": "[1]; osmotic pressure between 307 and 1503 mmol/Kg", "value": "all the three classes of lymph nodes could be stained into dark blue"}, {"measurement": "staining of lymph nodes", "setting": "[1]; osmotic pressure less than 285 mmol/Kg", "value": "only one class of lymph nodes could be stained"}, {"measurement": "color of third class of lymph nodes", "setting": "[2]; pH 2.0, 2.5 or 6.0, subcutaneous injection in the paws", "value": "light blue"}, {"measurement": "staining of lymph nodes", "setting": "[2]; pH between 2.0 and 6.0, subcutaneous injection in the paws", "value": "the three classes of lymph nodes could be stained"}, {"measurement": "staining of lymph nodes", "setting": "[2]; pH between 3.5 and 5.5, subcutaneous injection in the paws", "value": "all the three classes of lymph nodes could be stained into dark blue"}, {"measurement": "staining of lymph nodes", "setting": "[2]; pH less than 2.0, subcutaneous injection in the paws", "value": "only one class of lymph nodes could be stained"}, {"measurement": "local irritation of the injection site", "setting": "[3]; osmotic pressure 3011 mmol/Kg, subcutaneous injection in the paws", "value": "redness and swelling occurred and the H&E staining showed local irritation"}, {"measurement": "local irritation of the injection site", "setting": "[3]; other osmotic pressure values (112, 196, 285, 307, 1503, 2317 mmol/Kg)", "value": "did not show obvious local irritation"}, {"measurement": "drug content", "setting": "[4]; pH 6.5, one hour after adjusting pH", "value": "83.76±0.53", "unit": "%"}, {"measurement": "drug content", "setting": "[4]; pH 7.0, one hour after adjusting pH", "value": "75.38±0.22", "unit": "%"}]}
